Each structure is given as a SMILES string. Values after ≈ are worked out from the molar mass of the structure shown.

Common to all, as to assay: MIC assay
Type in all cases: cell-based

One test concerns S. aureus ATCC 12601. Particulars: Staphylococcus aureus, ATCC12601. The protocol: (§1) The staphylococci were cultured and maintained on Mueller-Hinton Medium (agar and broth) at pH 7.2; cultures were incubated aerobically at 37° C. for 19-20 hours.
(§2) This is a standard international method for quantitatively assessing the antimicrobial activity of a compound in a liquid medium. The method used a sterile 96-well microtitre plate, capable of holding about 200 μl of liquid per well. The wells contained liquid culture medium and ranges of decreasing concentrations of the relevant test compound in doubling dilutions (e.g. 1000, 500, 250, 125 . . . μg/ml, etc. down to 0.49 μg/ml). The culture media were as described above.
(§3) The wells were inoculated with a liquid suspension of freshly grown micro-organism and incubated under the conditions described above. After incubation, the microtitre plate was examined visually (with the aid of a light box) for cloudiness in each well, which would indicate microbial growth. The MIC value was recorded as the lowest concentration of test compound required to inhibit microbial growth, i.e. the lowest concentration for which the liquid in the well remained clear.
(§4) The assays included both negative (culture medium with no micro-organisms) and positive (culture medium plus diluting solvent plus micro-organism) controls.

In the next test the test system is S. aureus ATCC 12602. Particulars: Staphylococcus aureus, ATCC12602. The procedure: as §1, §2, §3, §4
The test system of a further test is S. aureus ATCC 25923. The conditions noted are these: Staphylococcus aureus, ATCC25923. The procedure:
as §1, §2, §3, §4

The subject of a further test is S. aureus CPHL EMRSA 17. Particulars: Staphylococcus aureus. The procedure: as §1, §2, §3, §4
Test [1] has as its system Staphylococcus aureus ATCC 29213. Particulars: ATCC29213, S. aureus ATCC 29213. The protocol: as §1, §2, §3, §4
The test system of test [2] is Staphylococcus haemolyticus ATCC 29970. Particulars: ATCC29970. The protocol: as §1, §2, §3, §4
Test [3] has as its system Staphylococcus hominis ATCC 27844. The conditions noted are these: ATCC27844. The protocol:
as §1, §2, §3, §4

Test [4] deals with Staphylococcus warneri ATCC 27836. The conditions noted are these: ATCC27836. The protocol: as §1, §2, §3, §4

In general, MIC refers to the smallest concentration in the dilution series that meets the test's criterion for growth inhibition. A higher MIC goes with a need for much substance. Regarding `Cc1cc(Cc2cc(C)cc(C(C)(C)C)c2O)c(O)c(C(C)(C)C)c1` [AO 2246, 2,2′-methylene-bis(4-methyl-6-tert-butylphenol)], the MIC turned out to be 1.95 µg/mL (≈ 5.73 µM) against S. aureus ATCC 12601; 1.95 µg/mL (≈ 5.73 µM) in the test with S. aureus ATCC 12602; 7.8 µg/mL (≈ 22.9 µM) in the test on S. aureus ATCC 25923; 1.95 µg/mL (≈ 5.73 µM) with S. aureus CPHL EMRSA 17; 3.9 µg/mL (≈ 11.5 µM) in test [1]; 3.9 µg/mL (≈ 11.5 µM) in test [2]. Further, the figures for the MIC in test [3] and in test [4] were 7.8 µg/mL (≈ 22.9 µM) and 15.6 µg/mL (≈ 45.8 µM), respectively.

(Values after US20100172854A1, “ANTIBACTERIAL FORMULATIONS” (priority 2007, published 2010).)
